Reference: ChEMBL document CHEMBL1641539 (Bioorg Med Chem Lett, 2011)

Legend:
[1] = tested on: Platelet-derived growth factor receptor alpha (Homo sapiens), P16234 [V561D]; assay: Inhibition of human PDGFRalpha V561D mutant at 10 uM after 60 mins by TR-FRET assay; values are per cent of control
[2] = tested on: Mast/stem cell growth factor receptor Kit (Homo sapiens), P10721 [V560G]; assay: Inhibition of human c-Kit V560G mutant at 10 uM after 60 mins by TR-FRET assay; values are per cent of control
[3] = target: Fibroblast growth factor receptor 3 (Homo sapiens) (UniProt P22607); assay: Inhibition of human FGFR3 at 10 uM after 60 mins by TR-FRET assay; values are per cent of control
Fibroblast growth factor receptor 3 (Homo sapiens), sequence (P22607 23-806 limits assumed): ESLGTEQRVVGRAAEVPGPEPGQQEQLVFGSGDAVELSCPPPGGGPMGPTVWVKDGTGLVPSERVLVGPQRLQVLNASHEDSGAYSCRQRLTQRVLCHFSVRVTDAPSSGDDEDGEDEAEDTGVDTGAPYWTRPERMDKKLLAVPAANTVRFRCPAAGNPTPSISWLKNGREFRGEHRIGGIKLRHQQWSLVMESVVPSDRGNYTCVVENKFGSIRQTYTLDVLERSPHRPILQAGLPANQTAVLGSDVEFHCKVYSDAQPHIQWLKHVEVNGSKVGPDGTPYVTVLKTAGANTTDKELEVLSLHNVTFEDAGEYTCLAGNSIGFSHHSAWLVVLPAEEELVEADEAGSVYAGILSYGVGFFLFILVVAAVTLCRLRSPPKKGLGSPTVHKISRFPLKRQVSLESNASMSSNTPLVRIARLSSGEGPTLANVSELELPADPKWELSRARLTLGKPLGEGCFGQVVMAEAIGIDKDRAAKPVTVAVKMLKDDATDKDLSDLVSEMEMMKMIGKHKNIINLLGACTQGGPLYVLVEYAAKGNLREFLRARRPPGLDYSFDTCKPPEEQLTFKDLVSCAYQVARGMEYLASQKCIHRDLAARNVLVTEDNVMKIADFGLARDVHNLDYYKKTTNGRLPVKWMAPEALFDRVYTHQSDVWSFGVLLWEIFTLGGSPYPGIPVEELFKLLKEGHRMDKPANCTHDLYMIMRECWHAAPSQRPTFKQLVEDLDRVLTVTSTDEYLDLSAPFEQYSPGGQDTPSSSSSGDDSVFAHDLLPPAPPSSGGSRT

[4] = target: Proto-oncogene tyrosine-protein kinase ROS (Homo sapiens) (UniProt P08922); assay: Inhibition of human Ros at 10 uM after 60 mins by TR-FRET assay; values are per cent of control
[5] = target: Testis-specific serine/threonine-protein kinase 2 (Homo sapiens) (UniProt Q96PF2); assay: Inhibition of human TSSK2 at 10 uM after 60 mins by TR-FRET assay; values are per cent of control
[6] = target: Ephrin type-A receptor 4 (Homo sapiens) (UniProt P54764); assay: Inhibition of human EphA4 at 10 uM after 60 mins by TR-FRET assay; values are per cent of control
[7] = tested on: Epidermal growth factor receptor (Homo sapiens), P00533 [L858R]; assay: Inhibition of human EGFR L858R mutant at 10 uM after 60 mins by TR-FRET assay; type: protein assay; details: values are per cent of control
Epidermal growth factor receptor (Homo sapiens), P00533 [L858R], sequence (P00533 whole entry L858R): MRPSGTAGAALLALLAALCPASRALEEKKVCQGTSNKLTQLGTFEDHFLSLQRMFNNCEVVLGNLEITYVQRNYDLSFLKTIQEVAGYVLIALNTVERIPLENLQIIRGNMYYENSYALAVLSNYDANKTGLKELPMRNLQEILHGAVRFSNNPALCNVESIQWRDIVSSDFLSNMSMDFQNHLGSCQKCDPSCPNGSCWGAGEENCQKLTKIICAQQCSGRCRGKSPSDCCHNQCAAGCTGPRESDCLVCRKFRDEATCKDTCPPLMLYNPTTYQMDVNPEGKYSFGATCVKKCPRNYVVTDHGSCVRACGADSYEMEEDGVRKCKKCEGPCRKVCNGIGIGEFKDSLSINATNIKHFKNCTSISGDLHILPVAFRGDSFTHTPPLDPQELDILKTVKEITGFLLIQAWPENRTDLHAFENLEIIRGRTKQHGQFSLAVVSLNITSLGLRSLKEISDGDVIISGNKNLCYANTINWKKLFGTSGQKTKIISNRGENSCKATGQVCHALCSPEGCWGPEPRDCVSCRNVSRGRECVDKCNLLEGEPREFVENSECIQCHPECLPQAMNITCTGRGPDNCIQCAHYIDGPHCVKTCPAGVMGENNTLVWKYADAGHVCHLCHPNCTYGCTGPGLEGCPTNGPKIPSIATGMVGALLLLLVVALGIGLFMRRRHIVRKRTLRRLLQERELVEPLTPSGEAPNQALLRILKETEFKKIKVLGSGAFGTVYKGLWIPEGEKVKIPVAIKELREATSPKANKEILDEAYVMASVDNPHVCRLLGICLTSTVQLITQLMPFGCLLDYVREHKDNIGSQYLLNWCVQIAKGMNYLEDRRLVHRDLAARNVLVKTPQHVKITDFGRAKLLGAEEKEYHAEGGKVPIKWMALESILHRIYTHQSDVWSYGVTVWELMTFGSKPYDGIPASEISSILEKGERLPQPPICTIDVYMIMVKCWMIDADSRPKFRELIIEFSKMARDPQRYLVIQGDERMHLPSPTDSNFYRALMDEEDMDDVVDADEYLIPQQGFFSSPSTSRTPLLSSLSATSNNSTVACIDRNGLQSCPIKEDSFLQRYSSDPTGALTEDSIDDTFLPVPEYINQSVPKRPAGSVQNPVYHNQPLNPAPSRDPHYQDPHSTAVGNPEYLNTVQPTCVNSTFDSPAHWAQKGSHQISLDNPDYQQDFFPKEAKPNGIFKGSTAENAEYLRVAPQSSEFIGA

[8] = target: Protein kinase C zeta type (Homo sapiens) (UniProt Q05513); assay: Inhibition of human PKCzeta at 10 uM after 60 mins by TR-FRET assay; values are per cent of control
[9] = target: Serine/threonine-protein kinase pim-3 (Homo sapiens) (UniProt Q86V86); assay: Inhibition of human Pim-3 at 10 uM after 60 mins by TR-FRET assay; values are per cent of control
[10] = target: Mitogen-activated protein kinase 9 (Homo sapiens, UniProt P45984); details: 10 uM
Mitogen-activated protein kinase 9, sequence (P45984 whole entry, looked up): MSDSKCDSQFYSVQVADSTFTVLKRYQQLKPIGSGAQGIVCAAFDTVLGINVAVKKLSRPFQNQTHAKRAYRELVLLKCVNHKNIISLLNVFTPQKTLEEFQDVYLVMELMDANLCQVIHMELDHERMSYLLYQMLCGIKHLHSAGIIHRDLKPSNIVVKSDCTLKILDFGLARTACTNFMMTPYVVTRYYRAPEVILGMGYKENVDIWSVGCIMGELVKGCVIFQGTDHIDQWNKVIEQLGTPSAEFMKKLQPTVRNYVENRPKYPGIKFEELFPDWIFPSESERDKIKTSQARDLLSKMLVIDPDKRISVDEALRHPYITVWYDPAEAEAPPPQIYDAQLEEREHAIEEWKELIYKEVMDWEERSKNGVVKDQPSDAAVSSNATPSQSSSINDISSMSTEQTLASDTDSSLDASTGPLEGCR
Description: Inhibition of human JNK2alpha2 at 10 uM after 60 mins by TR-FRET assay

[11] = target: CDK9/cyclin T1 (Homo sapiens) (UniProt O60563+P50750); assay: Inhibition of human CDK9/cyclin T1 at 10 uM after 60 mins by TR-FRET assay; values are per cent of control
[12] = target: Testis-specific serine/threonine-protein kinase 1 (Homo sapiens) (UniProt Q9BXA7); assay: Inhibition of human TSSK1 at 10 uM after 60 mins by TR-FRET assay; values are per cent of control
[13] = target: Homeodomain-interacting protein kinase 2 (Homo sapiens) (UniProt Q9H2X6); assay: Inhibition of human HIPK2 at 10 uM after 60 mins by TR-FRET assay; values are per cent of control
[14] = target: Serine/threonine-protein kinase 17B (Homo sapiens) (UniProt O94768); assay: Inhibition of human DYRK2 at 10 uM after 60 mins by TR-FRET assay; values are per cent of control
Serine/threonine-protein kinase 17B (Homo sapiens), sequence (O94768 whole entry): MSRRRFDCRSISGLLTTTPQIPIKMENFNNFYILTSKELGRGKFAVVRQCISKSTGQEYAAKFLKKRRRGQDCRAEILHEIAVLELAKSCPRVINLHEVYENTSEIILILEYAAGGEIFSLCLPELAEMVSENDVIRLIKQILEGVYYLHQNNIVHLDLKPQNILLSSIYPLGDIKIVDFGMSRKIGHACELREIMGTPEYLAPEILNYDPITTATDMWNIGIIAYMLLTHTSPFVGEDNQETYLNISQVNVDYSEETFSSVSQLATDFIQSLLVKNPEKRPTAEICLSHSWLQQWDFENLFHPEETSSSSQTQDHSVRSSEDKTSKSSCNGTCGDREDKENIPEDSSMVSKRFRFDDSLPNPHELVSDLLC

[15] = tested on: Mitogen-activated protein kinase 14 (Homo sapiens), Q16539 [T106M]; assay: Inhibition of human SAPK2a T106M mutant at 10 uM after 60 mins by TR-FRET assay; details: values are per cent of control
[16] = target: Serine/threonine-protein kinase VRK2 (Homo sapiens) (UniProt Q86Y07); assay: Inhibition of human VRK2 at 10 uM after 60 mins by TR-FRET assay; values are per cent of control
Serine/threonine-protein kinase VRK2 (Homo sapiens), sequence (Q86Y07 whole entry): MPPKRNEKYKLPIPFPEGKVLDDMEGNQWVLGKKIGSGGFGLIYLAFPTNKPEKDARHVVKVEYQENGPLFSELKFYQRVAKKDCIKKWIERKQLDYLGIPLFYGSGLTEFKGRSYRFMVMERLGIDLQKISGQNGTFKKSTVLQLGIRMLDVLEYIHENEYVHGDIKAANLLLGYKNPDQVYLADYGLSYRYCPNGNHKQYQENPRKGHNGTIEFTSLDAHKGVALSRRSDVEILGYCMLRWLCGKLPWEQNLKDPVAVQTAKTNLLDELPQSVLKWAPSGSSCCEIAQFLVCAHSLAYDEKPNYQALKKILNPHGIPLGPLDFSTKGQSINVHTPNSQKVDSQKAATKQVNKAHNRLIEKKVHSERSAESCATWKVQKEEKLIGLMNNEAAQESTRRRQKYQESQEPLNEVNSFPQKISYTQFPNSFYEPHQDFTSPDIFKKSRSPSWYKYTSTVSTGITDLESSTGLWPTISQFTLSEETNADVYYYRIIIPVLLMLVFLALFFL

[17] = target: Tyrosine-protein kinase Yes (Homo sapiens) (UniProt P07947); assay: Inhibition of human Yes at 10 uM after 60 mins by TR-FRET assay; values are per cent of control
[18] = target: Ephrin type-A receptor 2 (Homo sapiens) (UniProt P29317); assay: Inhibition of human EphA2 at 10 uM after 60 mins by TR-FRET assay; values are per cent of control
[19] = target: Tyrosine-protein kinase ABL1 (Homo sapiens) (UniProt P00519); assay: Inhibition of human Abl at 10 uM after 60 mins by TR-FRET assay; values are per cent of control
[20] = target: Tyrosine-protein kinase BTK (Homo sapiens) (UniProt Q06187); assay: Inhibition of human BTK at 10 uM after 60 mins by TR-FRET assay; values are per cent of control
[21] = target: Calcium/calmodulin-dependent protein kinase type IV (Homo sapiens) (UniProt Q16566); assay: Inhibition of human CaMK4 at 10 uM after 60 mins by TR-FRET assay; values are per cent of control
[22] = target: Calcium/calmodulin-dependent protein kinase type II subunit delta (Homo sapiens) (UniProt Q13557); assay: Inhibition of human CaMK2delta at 10 uM after 60 mins by TR-FRET assay; values are per cent of control
Calcium/calmodulin-dependent protein kinase type II subunit delta (Homo sapiens), sequence (Q13557 whole entry): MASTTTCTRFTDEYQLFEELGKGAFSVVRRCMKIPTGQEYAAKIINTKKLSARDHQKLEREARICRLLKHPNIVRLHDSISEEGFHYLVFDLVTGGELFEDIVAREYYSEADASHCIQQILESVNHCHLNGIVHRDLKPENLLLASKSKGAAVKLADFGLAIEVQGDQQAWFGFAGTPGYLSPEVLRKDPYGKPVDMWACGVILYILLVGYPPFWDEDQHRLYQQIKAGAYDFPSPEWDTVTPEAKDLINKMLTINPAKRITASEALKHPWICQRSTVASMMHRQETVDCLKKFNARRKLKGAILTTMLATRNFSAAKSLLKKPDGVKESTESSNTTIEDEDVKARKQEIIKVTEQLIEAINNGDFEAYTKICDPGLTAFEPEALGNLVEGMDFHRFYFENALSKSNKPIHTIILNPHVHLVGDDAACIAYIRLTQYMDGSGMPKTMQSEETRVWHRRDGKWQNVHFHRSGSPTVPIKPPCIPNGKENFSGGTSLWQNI

Platelet-derived growth factor receptor alpha (Homo sapiens), P16234 [V561D], sequence (P16234 whole entry V561D): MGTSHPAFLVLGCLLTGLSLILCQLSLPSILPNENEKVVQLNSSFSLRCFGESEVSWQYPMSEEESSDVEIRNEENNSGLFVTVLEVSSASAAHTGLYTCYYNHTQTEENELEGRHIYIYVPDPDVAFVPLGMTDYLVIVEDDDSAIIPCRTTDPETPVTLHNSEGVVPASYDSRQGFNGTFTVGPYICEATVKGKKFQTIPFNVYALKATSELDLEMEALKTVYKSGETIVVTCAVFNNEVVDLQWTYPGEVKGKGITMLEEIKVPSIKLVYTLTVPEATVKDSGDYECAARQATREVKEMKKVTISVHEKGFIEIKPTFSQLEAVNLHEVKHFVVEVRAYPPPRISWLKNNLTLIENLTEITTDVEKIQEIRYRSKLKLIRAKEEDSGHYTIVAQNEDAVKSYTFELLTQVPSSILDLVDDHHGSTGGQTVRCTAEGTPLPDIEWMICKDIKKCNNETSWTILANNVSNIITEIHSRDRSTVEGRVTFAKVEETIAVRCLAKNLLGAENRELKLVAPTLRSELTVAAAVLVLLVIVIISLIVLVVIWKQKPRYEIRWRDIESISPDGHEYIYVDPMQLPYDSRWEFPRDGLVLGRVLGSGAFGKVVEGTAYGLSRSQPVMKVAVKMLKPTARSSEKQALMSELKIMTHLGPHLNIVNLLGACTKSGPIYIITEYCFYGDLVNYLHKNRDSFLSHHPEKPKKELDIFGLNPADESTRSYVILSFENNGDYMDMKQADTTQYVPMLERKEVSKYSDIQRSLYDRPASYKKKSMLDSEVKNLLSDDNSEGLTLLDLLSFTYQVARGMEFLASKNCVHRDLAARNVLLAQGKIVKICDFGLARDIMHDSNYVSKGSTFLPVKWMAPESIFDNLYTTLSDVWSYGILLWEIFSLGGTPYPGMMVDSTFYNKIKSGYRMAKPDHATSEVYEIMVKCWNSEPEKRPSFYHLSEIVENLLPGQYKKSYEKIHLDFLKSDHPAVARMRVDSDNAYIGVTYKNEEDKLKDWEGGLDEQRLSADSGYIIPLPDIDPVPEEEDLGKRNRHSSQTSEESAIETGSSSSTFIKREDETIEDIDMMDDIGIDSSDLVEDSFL

Molecule `S=c1[nH]nc(-c2ccncc2)n1-c1ccc2ccccc2c1` has a residual activity [1] of 107%, a residual activity [2] of 102% and a residual activity [3] of 109%. It also gave a residual activity [4] of 100%, a residual activity [5] of 107% and a residual activity [6] of 127%. It also gave a residual activity [7] of 75%, a residual activity [8] of 115% and a residual activity [9] of 99%. The inhibition [10] was 88%, the residual activity [11] was 110% and the residual activity [12] was 111%. For the same molecule, the residual activity [13] was 95%, the residual activity [14] was 104% and the residual activity [15] was 104%. It also gave a residual activity [16] of 122%, a residual activity [17] of 107% and a residual activity [18] of 102%. It also gave a residual activity [19] of 113%, a residual activity [20] of 118% and a residual activity [21] of 112%. The residual activity [22] was 106%.
